Laboratory results published in the NIST ThermoML archive (doi:10.1016/j.jct.2005.06.011).

Tests used:
[1] = refractive index (Na D-line) (dimensionless); xn = mol fraction of the nth substance listed; settings: 101 kPa, Liquid
[2] = xn = mol fraction of the nth substance listed; settings: 101 kPa, Liquid; for speed of sound: Linear variable-path acoustic interferometer

CC(C)CO [2-methyl-1-propanol] + CC1CCCCC1
x2 = 0
Settings | mass density, 298.15 K [kg/m3] | mass density, 303.15 K [kg/m3] | mass density, 308.15 K [kg/m3] | refractive index, 298.15 K | refractive index, 303.15 K | refractive index, 308.15 K | speed of sound, 298.15 K [m/s] | viscosity, 298.15 K [mPa·s] | viscosity, 303.15 K [mPa·s] | viscosity, 308.15 K [mPa·s]
[1] | – | – | – | 1.3932 | 1.3917 | 1.3896 | – | – | – | –
[2] | 809.31 | 805.23 | 801.11 | – | – | – | 1170 | 3.097 | 2.635 | 2.249

CC(C)CCO [3-methylbutan-1-ol] + CC1CCCCC1
Settings | mass density, 298.15 K [kg/m3] | mass density, 303.15 K [kg/m3] | mass density, 308.15 K [kg/m3] | refractive index, 298.15 K | refractive index, 303.15 K | refractive index, 308.15 K | speed of sound, 298.15 K [m/s] | viscosity, 298.15 K [mPa·s] | viscosity, 303.15 K [mPa·s] | viscosity, 308.15 K [mPa·s]
[1], x2 = 0 | – | – | – | 1.4056 | 1.4034 | 1.4013 | – | – | – | –
[1], x2 = 0.1002 | – | – | – | 1.4073 | 1.405 | 1.4028 | – | – | – | –
[1], x2 = 0.2011 | – | – | – | 1.4089 | 1.4066 | 1.4043 | – | – | – | –
[1], x2 = 0.3001 | – | – | – | 1.4105 | 1.4081 | 1.4058 | – | – | – | –
[1], x2 = 0.4016 | – | – | – | 1.4121 | 1.4097 | 1.4073 | – | – | – | –
[1], x2 = 0.5019 | – | – | – | 1.4137 | 1.4112 | 1.4088 | – | – | – | –
[1], x2 = 0.6012 | – | – | – | 1.4153 | 1.4128 | 1.4103 | – | – | – | –
[1], x2 = 0.702 | – | – | – | 1.4169 | 1.4144 | 1.4118 | – | – | – | –
[1], x2 = 0.8011 | – | – | – | 1.4185 | 1.4159 | 1.4133 | – | – | – | –
[1], x2 = 0.9009 | – | – | – | 1.4201 | 1.4174 | 1.4148 | – | – | – | –
[2], x2 = 0 | 820.17 | 816.28 | 812.34 | – | – | – | 1259 | 2.779 | 2.258 | 1.844
[2], x2 = 0.1002 | 814.65 | 810.69 | 806.74 | – | – | – | 1255 | 2.569 | 2.144 | 1.719
[2], x2 = 0.2011 | 809.13 | 805.14 | 801.13 | – | – | – | 1250 | 2.359 | 1.976 | 1.593
[2], x2 = 0.3001 | 803.62 | 799.57 | 795.53 | – | – | – | 1246 | 2.151 | 1.81 | 1.47
[2], x2 = 0.4016 | 798.1 | 794.02 | 789.92 | – | – | – | 1242 | 1.938 | 1.641 | 1.343
[2], x2 = 0.5019 | 792.58 | 788.45 | 784.32 | – | – | – | 1238 | 1.728 | 1.472 | 1.217
[2], x2 = 0.6012 | 787.06 | 782.89 | 778.72 | – | – | – | 1234 | 1.519 | 1.306 | 1.093
[2], x2 = 0.702 | 781.54 | 777.33 | 773.11 | – | – | – | 1230 | 1.307 | 1.136 | 0.9662
[2], x2 = 0.8011 | 776.03 | 771.78 | 767.51 | – | – | – | 1226 | 1.097 | 0.9594 | 0.8412
[2], x2 = 0.9009 | 770.51 | 766.22 | 761.9 | – | – | – | 1221 | 0.8861 | 0.8008 | 0.7156

CCCCO [butan-1-ol] + CC1CCCCC1
x2 = 0
Settings | mass density, 298.15 K [kg/m3] | mass density, 303.15 K [kg/m3] | mass density, 308.15 K [kg/m3] | refractive index, 298.15 K | refractive index, 303.15 K | refractive index, 308.15 K | speed of sound, 298.15 K [m/s] | viscosity, 298.15 K [mPa·s] | viscosity, 303.15 K [mPa·s] | viscosity, 308.15 K [mPa·s]
[1] | – | – | – | 1.3983 | 1.3959 | 1.394 | – | – | – | –
[2] | 808.49 | 804.6 | 800.67 | – | – | – | 1268 | 2.587 | 2.254 | 1.988

CCO [ethanol] + CC1CCCCC1
x2 = 0
Settings | mass density, 298.15 K [kg/m3] | mass density, 303.15 K [kg/m3] | mass density, 308.15 K [kg/m3] | refractive index, 298.15 K | refractive index, 303.15 K | refractive index, 308.15 K | speed of sound, 298.15 K [m/s] | viscosity, 298.15 K [mPa·s] | viscosity, 303.15 K [mPa·s] | viscosity, 308.15 K [mPa·s]
[1] | – | – | – | 1.3608 | 1.3589 | 1.3563 | – | – | – | –
[2] | 785.66 | 781.34 | 776.99 | – | – | – | 1161 | 1.083 | 0.985 | 0.8954

CC1CCCCC1 [methylcyclohexane] + CC(C)CCO
x1 = 1
Settings | mass density, 298.15 K [kg/m3] | mass density, 303.15 K [kg/m3] | mass density, 308.15 K [kg/m3] | refractive index, 298.15 K | refractive index, 303.15 K | refractive index, 308.15 K | speed of sound, 298.15 K [m/s] | viscosity, 298.15 K [mPa·s] | viscosity, 303.15 K [mPa·s] | viscosity, 308.15 K [mPa·s]
[1] | – | – | – | 1.4217 | 1.4192 | 1.4163 | – | – | – | –
[2] | 764.99 | 760.66 | 756.3 | – | – | – | 1217 | 0.6757 | 0.631 | 0.5902

CC1CCCCC1 [methylcyclohexane] + CC(C)CO
Settings | mass density, 298.15 K [kg/m3] | mass density, 303.15 K [kg/m3] | mass density, 308.15 K [kg/m3] | refractive index, 298.15 K | refractive index, 303.15 K | refractive index, 308.15 K | speed of sound, 298.15 K [m/s] | viscosity, 298.15 K [mPa·s] | viscosity, 303.15 K [mPa·s] | viscosity, 308.15 K [mPa·s]
[1], x1 = 0.1003 | – | – | – | 1.397 | 1.3945 | 1.392 | – | – | – | –
[1], x1 = 0.2006 | – | – | – | 1.4 | 1.3975 | 1.395 | – | – | – | –
[1], x1 = 0.3008 | – | – | – | 1.4031 | 1.4005 | 1.3979 | – | – | – | –
[1], x1 = 0.4037 | – | – | – | 1.4059 | 1.4033 | 1.4007 | – | – | – | –
[1], x1 = 0.5066 | – | – | – | 1.4088 | 1.4061 | 1.4034 | – | – | – | –
[1], x1 = 0.6052 | – | – | – | 1.4114 | 1.4088 | 1.4062 | – | – | – | –
[1], x1 = 0.7038 | – | – | – | 1.4141 | 1.4115 | 1.409 | – | – | – | –
[1], x1 = 0.8025 | – | – | – | 1.4167 | 1.414 | 1.4113 | – | – | – | –
[1], x1 = 0.9011 | – | – | – | 1.4194 | 1.4165 | 1.4135 | – | – | – | –
[1], x1 = 1 | – | – | – | 1.4217 | 1.4192 | 1.4163 | – | – | – | –
[2], x1 = 0.1003 | 802.66 | 798.47 | 794.29 | – | – | – | 1175 | 2.499 | 2.17 | 1.841
[2], x1 = 0.2006 | 796.44 | 792.18 | 787.91 | – | – | – | 1179 | 2.037 | 1.79 | 1.542
[2], x1 = 0.3008 | 790.71 | 786.35 | 782.02 | – | – | – | 1183 | 1.63 | 1.44 | 1.248
[2], x1 = 0.4037 | 785.47 | 781.09 | 776.69 | – | – | – | 1188 | 1.359 | 1.209 | 1.058
[2], x1 = 0.5066 | 780.72 | 776.29 | 771.86 | – | – | – | 1193 | 1.12 | 1.017 | 0.9138
[2], x1 = 0.6052 | 776.53 | 772.08 | 767.64 | – | – | – | 1198 | 0.9911 | 0.906 | 0.821
[2], x1 = 0.7038 | 772.84 | 768.37 | 763.92 | – | – | – | 1202 | 0.8637 | 0.7964 | 0.729
[2], x1 = 0.8025 | 769.44 | 764.99 | 760.54 | – | – | – | 1207 | 0.7897 | 0.7317 | 0.6738
[2], x1 = 0.9011 | 766.63 | 762.18 | 757.75 | – | – | – | 1212 | 0.7162 | 0.6676 | 0.6189
[2], x1 = 1 | 764.99 | 760.66 | 756.3 | – | – | – | 1217 | 0.6757 | 0.631 | 0.5902
